Test results published in publication PMC8876959, “Comparative Evaluation of Radiochemical and Biological Properties of ^131I- and [^99mTc]Tc(CO)3-Labeled RGD Analogues Planned to Interact with the αvβ3 Integrin Expressed in Glioblastoma” (Pharmaceuticals, 2022).

How the values were obtained:
[1] = RP-HPLC retention time (used as an indication of hydrophobicity); type: physicochemical; conditions: C18 column, 0.1% TFA:H2O (A), 60% acetonitrile/0.1% TFA:H2O (B), 5-95% B in 30 min, 1.0 mL/min; radioactivity detector (slight delay versus UV signal)
Method: RP-HPLC analyzes were performed on a Proeminence LC-20A system (Shimadzu; Kyoto, Japan). The column selected was Vydac C18 150 × 4.6 mm, with a particle size of 5 μm, a pore size of 300 Å. Chromatograms were performed at λ = 220 nm. Peaks were eluted using solvent systems composed of 0.1% TFA:H2O as solvent A and 60% acetonitrile/0.1% TFA:H2O as solvent B, on a gradient of 5–95% of solvent B at a flow rate of 1.0 mL·min^−1 for 30 min (n = 3).
RP-HPLC analyzes were performed on a 1290 Infinity II UHPLC system (Agilent Technologies; Saint Clair, CA, USA) fitted with a radioactivity detector (Eckert & Ziegler; Berlin, Germany) and Open Lab ECM data system (Agilent Technologies; Saint Clair, CA, USA) to confirm the yield and purity of both radiolabeled peptides. Analyzes were performed using a Phenomenex C18 column (150 × […]; 5 µm particle size; 300 Å pore size), detection at λ = 220 nm, using 0.1% TFA:H2O as solvent A and 60% acetonitrile/0.1% TFA:H2O as solvent B. A gradient of 5% to 95% of solvent B in 30 min was used at a flow rate of 1.0 mL·min^−1.

[2] = test system: C6 tumorigenic cells; test: Binding and internalization in C6 tumorigenic cells; type: cell-based, rat; conditions: 37 °C; for Bound fraction: 2 × 10^6 cells, 10 nmol radiopeptide
Method: The C6 cells were incubated at 37 °C in a humidified atmosphere containing 5% CO2 and maintained in culture using Dulbecco’s Modified Eagle Medium (DMEM)—F12 (Gibco; Gaithersburg, MD, USA) supplemented with 10% fetal bovine serum (Sigma-Aldrich; Darmstadt, Germany) and 1% glutamine (Sigma-Aldrich; Darmstadt, Germany). Cells were grown to 75% confluence and then harvested by trypsinization (0.04% trypsin/EDTA). After centrifugation (151× g for 5 min), the cells were resuspended in DMEM—F12 to a final concentration of […] for the development of the glioblastoma animal model.
An aliquot containing 2 × 10^6 C6 cells in supplemented DMEM-F12 culture medium (450 µL) was added to a vial and incubated with 10 nmol of the radiolabeled peptide at 37 °C with gentle agitation. The studies were evaluated at 1, 4 and 24 h (n = 7 for each time point). Then, the vials were centrifuged (604× g for 5 min). The radioactivities of the pellet and supernatant were separately evaluated using an automatic Wizard 3 2480 gamma counter (Perkin Elmer; Norwalk, CT, USA). The percentage of the bound fraction was calculated by Equation (1). (1) % bound fraction=Pellet radioactivity (cpm)/Pellet radioactivity (cpm)+supernatant radioactivity (cpm)×100
In the sequence, a second radioactivity determination was performed. For that, pellets were resuspended using 0.5 mL of acid buffer (0.2 M acetic acid in 0.5 M NaCl solution; pH 2.8) and maintained at room temperature for 5 min to remove the radiolabeled molecule attached to the cell membrane surface. Then, the vials were centrifuged (1677× g for 5 min). The pellet and supernatant were separated and their radioactivities were measured using the above-mentioned automatic gamma counter. The percentage of the internalized fraction of radiopeptides was estimated based on the ratio between the activity contained in the precipitate and the supernatant and calculated by Equation (2):(2) % internalized fraction=Pellet radioactivity (cpm)/Pellet radioactivity (cpm)+supernatant radioactivity (cpm)×100

[3] = Partition coefficient (n-octanol/water); type: physicochemical; conditions: shake-flask, n-octanol/water (1:1), vortexed, 1 h at rest, centrifuged; gamma counter; mean ± SD, n = 6 (method: n = 5)
Method: A fraction (100 μL) of the radiopeptide was added to a water/n-octanol (1:1) mixture. The mixture was vigorously vortexed and kept at rest for 1 h. Then, it was centrifuged at 1677× g for 5 min. Equal samples from both aqueous/organic phases were collected and their radioactivities were measured in an automatic Wizard 3 2480 gamma counter (Perkin Elmer; Norwalk, CT, USA) to determine log P values (n = 5).

[4] = Ex vivo biodistribution in glioblastoma allograft tumor-bearing (model) rats; design: species or system rat; conditions: for Ex vivo biodistribution, Blood / Ex vivo biodistribution, Brain / Ex vivo biodistribution, Heart / Ex vivo biodistribution, Kidneys / Ex vivo biodistribution, Liver / Ex vivo biodistribution, Lungs / Ex vivo biodistribution, Spleen / Ex vivo biodistribution, Stomach: model rats, gamma counter, mean ± SEM, n = 3
Method: Adult male Sprague Dawley rats (280–320 g) were maintained under controlled environmental conditions (12 h light-dark cycle; constant temperature 21 ± 2 °C), with free access to water and food. Tumorigenic glioblastoma cells were implanted in the right frontal cortex, following specific coordinates (referred to bregma): anteroposterior = 1.0 mm; lateral = 3.0 mm; depth = 5.0 mm. An aliquot of culture medium (10 µL) containing 1 × 10^6 C6 cells in suspension was injected slowly (1 µL/min) using a Hamilton syringe positioned on a stereotaxic surgery frame. In the control group, only the culture medium, without cells, was injected. An interval of 20 days after cell inoculation was allowed for tumor development.
The ex vivo biodistribution of each radiolabeled peptide (4 MBq; 0.2 mL) was evaluated at 15, 60, and 240 min after IV injection in control and tumor-bearing animals (n = 3 per group, per time point). The molar activities in this study were 0.68 and 16.2 MBq/nmol for the iodine and tricarbonyl-labeled peptides, respectively. Animals were deeply anesthetized and sacrificed at the corresponding biodistribution time point. Brain, spleen, heart, stomach, liver, lungs, kidneys, and blood were collected and weighed. Then, their radioactivities were determined using the above-mentioned automatic gamma counter. The radioactivity of each organ/tissue was evaluated as the percentage of injected dose per gram of organ/tissue (% ID/g), using the same injected dose activity as a standard.

## [^99mTc]Tc(CO)3-GRGDHV
[1]
  RP-HPLC retention time (Rt), radiolabeled peptide: 17.80 min
[2]; 1 h, n = 7
  Bound fraction: ~ 22%
[2]; 4 h, mean ± SD, n = 7
  Bound fraction: 23.47% ± 1.78
[2]; 24 h, n = 7
  Bound fraction: ~ 8%
[2]; 1 h, acid buffer wash pH 2.8, n = 7
  Internalized fraction: ~ 34%
[2]; 4 h, acid buffer wash pH 2.8, mean ± SD, n = 7
  Internalized fraction: 54.24% ± 3.99
[2]; 24 h, acid buffer wash pH 2.8, n = 7
  Internalized fraction: ~ 74%
[3]
  Log P: −1.13 ± 0.14
[4]; 15 min after IV injection
  Ex vivo biodistribution, Blood: 10.28 ± 2.93 %ID/g
  Ex vivo biodistribution, Brain: 0.71 ± 0.01 %ID/g
  Ex vivo biodistribution, Heart: 5.40 ± 0.48 %ID/g
  Ex vivo biodistribution, Kidneys: 58.33 ± 1.43 %ID/g
  Ex vivo biodistribution, Liver: 7.04 ± 0.68 %ID/g
  Ex vivo biodistribution, Lungs: 10.03 ± 2.56 %ID/g
  Ex vivo biodistribution, Spleen: 3.74 ± 0.33 %ID/g
  Ex vivo biodistribution, Stomach: 4.44 ± 1.25 %ID/g
[4]; 60 min after IV injection
  Ex vivo biodistribution, Blood: 8.91 ± 0.94 %ID/g
  Ex vivo biodistribution, Brain: 0.81 ± 0.01 %ID/g
  Ex vivo biodistribution, Heart: 5.14 ± 0.73 %ID/g
  Ex vivo biodistribution, Kidneys: 58.99 ± 1.13 %ID/g
  Ex vivo biodistribution, Liver: 8.29 ± 0.43 %ID/g
  Ex vivo biodistribution, Lungs: 7.83 ± 0.20 %ID/g
  Ex vivo biodistribution, Spleen: 2.88 ± 0.32 %ID/g
  Ex vivo biodistribution, Stomach: 7.28 ± 0.88 %ID/g
[4]; 240 min after IV injection
  Ex vivo biodistribution, Blood: 10.32 ± 1.51 %ID/g
  Ex vivo biodistribution, Brain: 1.57 ± 0.11 %ID/g
  Ex vivo biodistribution, Heart: 4.80 ± 0.11 %ID/g
  Ex vivo biodistribution, Kidneys: 40.44 ± 2.99 %ID/g
  Ex vivo biodistribution, Liver: 11.62 ± 1.01 %ID/g
  Ex vivo biodistribution, Lungs: 9.38 ± 1.89 %ID/g
  Ex vivo biodistribution, Spleen: 4.12 ± 0.79 %ID/g
  Ex vivo biodistribution, Stomach: 14.60 ± 2.07 %ID/g
[4]; judged from ex vivo biodistribution (stomach uptake) in rats
  In vivo radiochemical stability: better in vivo radiochemical stability
